Source: patent publication US20250257064A1, “TRIFLUOROMETHYL-SUBSTITUTED SULFONAMIDE AS BCL-2-SELECTIVE INHIBITOR” (Chia Tai Tianqing Pharmaceutical Group Co., Ltd., priority 2018, published 2025)

Key:
BCL-XL/BAK = molecular target: T1, BCL-XL/BAK (Homo sapiens, UniProt Q07817); test: Screening on inhibitory activity for BCL-XL/BAK binding (Cisbio HTRF kit)
T1 construct: purchased Cisbio
In short: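 Tag1-BCL-XL and Tag2-BAK (2 nM and 80 nM before mixing) were combined with compounds at final 2000–0.488 nM (4-fold, 7 points, duplicates) for 15 min at 25° C. Eu3+ anti-Tag1 and XL665 anti-Tag2 were then added for ≥2 h at 25° C. HTRF (620/665 nm) gave IC50 by four-parameter fit.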

[1] = In vitro stability in mouse liver microsomes; format: in vitro ADME; conditions: 1 μM
Protocol: (§1) Experimental Example 3: In Vitro Stability in Liver Microsome
(§2) 300 μL of the final incubation system contains 30 μL of liver microsomes (protein concentration: 5 mg/mL), 30 μL of NADPH+MgCl2, 3 μL of the test compound (in acetonitrile), and 237 μL of PBS buffer (pH 7.4), wherein the proportion of the organic solvent (acetonitrile) is 1% (volume ratio). Two duplicate samples were prepared for each specie (mouse, rat and human), and each sample was 0.3 mL. Each tube which was added with 270 μL of a mixed solution of substrate and enzyme, and NADPH, after being pre-incubated at 37° C. for 5 min, was added with 30 μL of NADPH+MgCl2 and mixed. Then 50 μL of the mixture was taken at 0 min, 15 min, 30 min and 60 min, and added with 300 μL of glacial acetonitrile containing an internal standard to terminate the reaction.
(§3) 50 μL of the incubated sample was added with 300 μL of glacial acetonitrile containing an internal standard (20 ng/mL diazepam) for precipitation, vortexed for 5 min, and centrifuged (13,000 rpm, 20° C.) for 10 min. 70 μL of supernatant was taken and diluted with 70 μL of ultrapure water. After being mixed well, 1 μL of the resulting sample was injected for analysis.

[2] = In vitro stability in human liver microsomes; format: in vitro ADME; conditions: 1 μM
Protocol: as §1, §2, §3

BCL-2/BAK = molecular target: T2, BCL-2/BAK (Homo sapiens, UniProt P10415); test: Screening on inhibitory activity for BCL-2/BAK binding (Cisbio HTRF kit)
T2 construct: purchased Cisbio
In short: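 HTRF competition assay: Tag1-BCL-2 and Tag2-BAK working dilutions were 5 nM and 120 nM. Compound (200–0.0488 nM final, 4-fold, 7 points, duplicates) was incubated with the proteins for 15 min at 25 °C, then with Eu-cryptate/XL665 antibodies for ≥2 h at 25 °C. IC50 was derived from a four-parameter fit.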

[3] = In vitro stability in rat liver microsomes; format: in vitro ADME; conditions: 1 μM
Protocol: as §1, §2, §3

RS4;11 cells = test: Inhibitory effect on proliferation of RS4;11 cells (CCK-8); format: cell-based, human; conditions: Homo sapiens, RS4-11, 72 h
In short: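 RS4;11 cells were seeded at 1×10^5 cells/mL in RPMI with 5% FBS and incubated 24 h at 37° C, 5% CO2 before compound addition in duplicate. Inhibition was calculated against untreated and blank controls. IC50 came from a four-parameter fit of log concentration versus inhibition.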

[4] = system: human platelet Caspase-3 activity; test: Human platelet toxicity experiment (Caspase-3 activity assay); format: cell-based; conditions: 90 min, data normalized, reference ABT-199
Protocol: Experimental Example 6: Human Platelet Toxicity Experiment (Caspase-3 Activity Assay)
10 mL of human whole blood was collected using a heparin sodium anticoagulation tube, mixed well by turning upside down, and centrifuged at 90 g for 10 min. The supernatant was collected and centrifuged at 1950 g for 10 min. The supernatant was discarded, and the residue was resuspended in 4 mL of PBS, and centrifuged at 1190 g for 5 min, and the procedure was repeated once. The supernatant was discarded, and the platelets were resuspended in PBS and adjusted to the density of 2-3×10^8 cells/mL. Cells were seeded into a 96-well plate at a density of 2-3×10^7 cells/mL and at 100 μL/well. 50 μL of control buffer was added to each negative control well, and 50 μL of compound at a corresponding concentration was added to each compound well, so that the final concentration of the compound was 2.5 μM, 2 μM, 1 μM or 0.5 μM, followed by incubation in an incubator at 37° C. for 90 min. The liquids in the 96-well plate were transferred to 1.5 mL centrifuge tubes, respectively. The tubes were centrifuged at 4° C. and 6000 g for 5 min, and placed on ice for later use after the supernatant was discarded. 5× lysis buffer was diluted into 1× lysis buffer with water in the kit, and protease inhibitor cocktail was added at a 1:200 ratio to prepare a lysis mixture for later use. 40 μL of lysis mixture was added to each centrifuge tube, and the platelets at the bottom were resuspended using a pipette. The suspension was lysed on ice for 15-20 min and centrifuged at 4° C. and 14,000 g for 10 min. The sample was sub-packaged for later use. 10× assay buffer was diluted into 1× assay buffer with water in the kit, and substrate Ac-DEVD-AMC was added at a 1:600 ratio to prepare a reaction mixture. 5 μL of assay buffer and 40 μL of reaction mixture were added to each blank control well. 5 μL of control platelet lysate and 40 μL of reaction mixture were added to each negative control well. 5 μL of platelet lysate and 40 μL of reaction mixture were added to each compound well. In this procedure, 40 μL of reaction mixture was added at last. The resulting mixture was mixed gently, and the plate was read by a PE Envision multi-functional microplate reader (excitation: 360 nm, emission: 460 nm) once every 10 min for 6 times. Caspase-3 activity was determined based on the intensity of the released AMC fluorescence, that is the slope of the fitted line to which each well corresponds represents Caspase activity (all data were normalized and the reference was ABT-199).

T2 sequence (P10415 whole entry, species assumed): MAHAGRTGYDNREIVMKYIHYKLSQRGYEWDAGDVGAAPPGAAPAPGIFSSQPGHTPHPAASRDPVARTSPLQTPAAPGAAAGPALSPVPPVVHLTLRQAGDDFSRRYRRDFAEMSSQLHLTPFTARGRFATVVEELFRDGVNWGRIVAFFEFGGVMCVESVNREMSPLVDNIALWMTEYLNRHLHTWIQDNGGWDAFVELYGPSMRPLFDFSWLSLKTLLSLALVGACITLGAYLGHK
T1 sequence (Q07817 whole entry, species assumed): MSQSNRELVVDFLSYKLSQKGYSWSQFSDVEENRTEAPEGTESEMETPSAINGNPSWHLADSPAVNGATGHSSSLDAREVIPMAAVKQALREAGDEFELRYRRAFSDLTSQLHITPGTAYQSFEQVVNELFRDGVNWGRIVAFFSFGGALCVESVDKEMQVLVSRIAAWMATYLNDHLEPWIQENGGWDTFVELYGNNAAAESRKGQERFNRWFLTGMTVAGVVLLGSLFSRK

Row | Structure (SMILES) | IC50 (BCL-XL/BAK) | Mouse Residual content after 60 min (%) [1] | Human Residual content after 60 min (%) [2] | IC50 (BCL-2/BAK) | Rat Residual content after 60 min (%) [3] | IC50 (RS4;11 cells) | human platelet Caspase-3 activity, Slope ([4]; compound concentration 0.5 μM) | human platelet Caspase-3 activity, Slope ([4]; compound concentration 2 μM) | human platelet Caspase-3 activity, Slope ([4]; compound concentration 1 μM)
1 | CC(C)C(=O)N1CCOC(CNc2ccc(S(=O)(=O)NC(=O)c3ccc(N4CCN(CC5=C(c6ccc(C(F)(F)F)cc6Cl)CC(C)(C)CC5)CC4)cc3Oc3cnc4[nH]ccc4c3)cc2[N+](=O)[O-])C1 (centres unmarked) [Compound 10-1, 4-(4-{[2-(2-chloro-4-trifluoromethylphenyl)-4,4-dimethylcyclohex-1-enyl]methyl}-piperazin-1-yl)-N-({3-nitro-4-[((4-isobutyrylmorpholin-2-yl)methyl)amino]phenyl}sulfonyl)-2-(1H-pyrrolo[2,3-b]pyridin-5-yloxy)-benzamide] | 194 nM | 30.1% | 78.0% | 2.8 nM | 69.9% | 5.6 nM |  |  | 
2 | COCC(=O)N1CCO[C@H](CNc2ccc(S(=O)(=O)NC(=O)c3ccc(N4CCN(CC5=C(c6ccc(C(F)(F)F)cc6Cl)CC(C)(C)CC5)CC4)cc3Oc3cnc4[nH]ccc4c3)cc2[N+](=O)[O-])C1 [Compound 11-1] | 140 nM | 62.9% | 67.4% | 1.6 nM | 66.3% | 2.5 nM | 0.42 | 0.57 | 
3 | CC1(C)CCC(CN2CCN(c3ccc(C(=O)NS(=O)(=O)c4ccc(NCC5CN(S(C)(=O)=O)CCO5)c([N+](=O)[O-])c4)c(Oc4cnc5[nH]ccc5c4)c3)CC2)=C(c2ccc(C(F)(F)F)cc2Cl)C1 (centres unmarked) [Compound 12-1, 4-(4-{[2-(2-chloro-4-trifluoromethylphenyl)-4,4-dimethylcyclohex-1-enyl]methyl}-piperazin-1-yl)-N-({3-nitro-4-[((4-methylsulfonylmorpholin-2-yl)methyl)amino]phenyl}sulfonyl)-2-(1H-pyrrolo[2,3-b]pyridin-5-yloxy)-benzamide] | 113 nM | 93.4% | 91.3% | 1.4 nM | 80.2% | 1.7 nM | 0.27 | 0.33 | 
4 | CC1(C)CCC(CN2CCN(c3ccc(C(=O)NS(=O)(=O)c4ccc(NCC5CCOCC5)c([N+](=O)[O-])c4)c(Oc4cnc5[nH]ccc5c4)c3)CC2)=C(c2ccc(C(F)(F)F)c(F)c2)C1 [Compound 6-1, 4-(4-{[2-(3-fluoro-4-trifluoromethylphenyl)-4,4-dimethylcyclohex-1-enyl]methyl}-piperazin-1-yl)-N-({3-nitro-4-[(tetrahydro-2H-pyran-4-ylmethyl)amino]phenyl}sulfonyl)-2-(1H-pyrrolo[2,3-b]pyridin-5-yloxy)-benzamide] | 1970 nM | 65.3% | 65.9% | 5.7 nM | 61.2% | 2.4 nM |  |  | 0.45
